Numbers after ± are expanded uncertainties.
Conditions: 101.33 kPa, Liquid; for viscosity: Capillary tube (Ostwald / Ubbelohde) method; for mass density: Vibrating tube method

viscosity (298.15 K) [mPa·s] | viscosity (303.15 K) [mPa·s] | mass density (303.15 K) [kg/m3] | viscosity (308.15 K) [mPa·s] | viscosity (313.15 K) [mPa·s] | mass density (313.15 K) [kg/m3] | viscosity (318.15 K) [mPa·s] | viscosity (323.15 K) [mPa·s] | mass density (323.15 K) [kg/m3] | viscosity (328.15 K) [mPa·s] | mass density (298.15 K) [kg/m3] | mass density (308.15 K) [kg/m3] | mass density (318.15 K) [kg/m3] | mass density (328.15 K) [kg/m3] | SMILES
16.61 ± 0.23 | 13.58 ± 0.18 | 1106.38 ± 0.08 | 11.24 ± 0.15 | 9.404 ± 0.13 | 1099.31 ± 0.08 | 7.945 ± 0.11 | 6.774 ± 0.094 | 1092.16 ± 0.08 | 5.826 ± 0.081 | – | – | – | – | OCCO [1,2-ethanediol]
1.087 ± 0.016 | 0.99 ± 0.02 | 780.75 ± 0.15 | 0.905 ± 0.013 | 0.829 ± 0.012 | 772.02 ± 0.15 | 0.761 ± 0.011 | 0.706 ± 0.01 | 763.11 ± 0.15 | 0.648 ± 0.009 | 785.07 ± 0.15 | 776.41 ± 0.15 | 767.59 ± 0.15 | 758.58 ± 0.16 | CCO [ethanol]

Source: the NIST ThermoML archive (doi:10.1016/j.jct.2012.08.024)
